Reference: patent publication US5496805A, “Inhibitors of neutral endopeptidase” (priority 1990, dated 1996)
Where a name gives a salt, the structure may show the parent alone.

target: T1, neutral endopeptidase (Rattus norvegicus, UniProt P07861); test: biochemical; conditions: enzyme purified from rat kidney; Dns-Gly-Phe-Arg 0.5 mM; pH 7.5; 37°, 30 minutes; inhibitor preincubated 10 minutes
T1 sequence (P07861 1-750): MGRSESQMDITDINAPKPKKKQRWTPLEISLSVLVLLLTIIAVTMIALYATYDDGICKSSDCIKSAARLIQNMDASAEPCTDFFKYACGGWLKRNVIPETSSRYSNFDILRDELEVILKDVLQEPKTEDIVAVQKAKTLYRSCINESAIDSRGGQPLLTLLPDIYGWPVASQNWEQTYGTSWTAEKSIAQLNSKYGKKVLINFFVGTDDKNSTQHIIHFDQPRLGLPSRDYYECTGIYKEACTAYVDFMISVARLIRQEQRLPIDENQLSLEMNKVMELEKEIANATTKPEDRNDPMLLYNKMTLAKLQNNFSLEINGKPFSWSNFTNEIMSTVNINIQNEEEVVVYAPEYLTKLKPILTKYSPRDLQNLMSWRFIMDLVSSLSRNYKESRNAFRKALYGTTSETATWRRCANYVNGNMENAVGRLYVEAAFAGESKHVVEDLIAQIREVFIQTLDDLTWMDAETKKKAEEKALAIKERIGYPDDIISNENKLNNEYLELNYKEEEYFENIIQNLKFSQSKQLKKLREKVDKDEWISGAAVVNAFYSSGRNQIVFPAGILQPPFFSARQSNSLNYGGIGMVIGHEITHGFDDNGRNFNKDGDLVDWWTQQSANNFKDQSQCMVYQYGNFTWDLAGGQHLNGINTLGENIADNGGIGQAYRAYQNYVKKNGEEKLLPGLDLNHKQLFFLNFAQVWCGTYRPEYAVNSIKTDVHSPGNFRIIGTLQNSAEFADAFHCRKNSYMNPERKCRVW
Method: The in vitro neutral endopeptidase activity is determined using a fluorometric assay procedure. The assay is based upon the cleavage of the fluorescent dansylated tripeptide Dns-Gly-Phe-Arg to form Dns-Gly. The latter is extracted from the acidified mixture by ethyl acetate and is strongly fluorescent.
The incubation mixture employed for the assay contains the substance Dns-Gly-Phe-Arg (0.5 mM), tris(hydroxymethyl)aminomethane -HCl buffer (pH 7.5, 50 mM), an enzyme preparation in 0.05% Triton X-100, and water or inhibitor diluted to a final volume of 0.25 ml. The enzyme preparation is purified from rat kidney according to the procedure described by Almenoff et al. in Biochemistry Vol. 22, p. 590-599 (1983). The inhibitor is preincubated for 10 minutes with the enzyme preparation and buffer before the reaction is initiated by the addition of the substrate. Incubation is carried out at 37° for 30 minutes and the reaction is stopped by the addition of 0.25 ml. 1N HCl and extraction of the Dns-Gly product into 1.5 ml. of ethyl acetate. Relative fluorescent intensity (RFI) of the ethyl acetate extract is measured using a Ferrand Spectofluorometer at excitation and emission wavelengths of 342 and 508 nm., respectively, corrected for the RFI of a zero-time control, and compared with assays lacking inhibitor.
Runs are made at different concentrations of test compound and by use of a mathematical model the IC50 is determined. The IC50 is the concentration of test compound that inhibits activity of the enzyme by 50%.

Compared with `CC(CS)C(=O)N[C@@H](CCCNC(=N)N)C(=O)O` (mixture of isomers) [Example 3, N-(DL-3-Mercapto-2-methyl-1-oxopropyl)-L-arginine], `CC(C)CC(CS)C(=O)N[C@@H](CCCNC(=N)N)C(=O)O` (mixture of isomers) [Example 11, (±)-N^2-[2-(Mercaptomethyl)-4-methyl-1-oxopentyl]-L-arginine] is 4.2-fold lower in IC50: 720 nM for the first, 170 nM for the second.

First: N=C(N)NCCC[C@H](NC(=O)C(CS)Cc1ccccc1)C(=O)O (mixture of isomers) [Example 4, N-[DL-2-(Mercaptomethyl)-1-oxo-3,-phenylpropyl]-L-arginine]
Second: CSCC[C@H](NC(=O)C(CS)Cc1ccccc1)C(=O)O (mixture of isomers) [Example 22, (±)-N-[2-(Mercaptomethyl)-1-oxo-3-phenylpropyl]-L -methionine]
The IC50 of the first is 43-fold higher: 290 nM for the first, 6.7 nM for the second. The second is the more potent here.

`CC(CS)C(=O)N[C@@H](Cc1c[nH]c2ccccc12)C(=O)O` (mixture of isomers) [Example 5, N-(DL-3-Mercapto-2-methyl-1-oxopropyl)-L-tryptophan] and `CC(CS)C(=O)N[C@@H](Cc1ccccc1)C(=O)O` (mixture of isomers) [Example 17, (±)-N-(3-Mercapto-2-methyl-1-oxopropyl)-L-phenylalanine, 1,1-dimethylethanamine salt (1:1)] are within 1.5-fold of each other in IC50: 20 nM for the first, 14 nM for the second.

Compared with `CC(CS)C(=O)N[C@@H](Cc1ccc(O)cc1)C(=O)O` (mixture of isomers) [Example 6, N-(DL-3-Mercapto-2,methyl1-oxopropyl)-L-tyrosine], `CC(CS)C(=O)N[C@@H](Cc1ccc(O)c(O)c1)C(=O)O` (mixture of isomers) [Example 7, 3-Hydroxy-N-(DL-3-mercapto-2-methyl-1-oxopropyl)-L-tyrosine] is 4.2-fold higher in IC50: 13 nM for the first, 54 nM for the second. The first is the more potent here.

First: CC(C)C[C@H](NC(=O)C(C)CS)C(=O)O (mixture of isomers) [Example 18, (±)-N-(3-Mercapto-2-methyl-1-oxopropyl)-L-leucine, 1,1-dimethylethanamine salt (1:1)]
Second: CC(C)CC(CS)C(=O)N[C@@H](CC(C)C)C(=O)O (mixture of isomers) [Example 34, (±)-N-[2-(Mercaptomethyl)-4-methyl-1-oxopentyl]-L-leucine]
The IC50 of the first is 5.8-fold higher: 69 nM for the first, 12 nM for the second.

First: CC(CS)C(=O)N[C@@H](CCC(=O)O)C(=O)O (mixture of isomers) [Example 19, (±)-N-(3-Mercapto-2-methyl-1-oxopropyl)-L-glutamic acid, 1,1-dimethylethanamine salt (1:2)]
Second: CC(CS)C(=O)N[C@@H](CO)C(=O)O (mixture of isomers) [Example 21, (±)-N-(3-Mercapto-2-methyl-1-oxopropyl)-L-serine, N-cyclohexylcyclohexamine salt(1:1)]
The IC50 of the first is 2.5-fold lower: 110 nM for the first, 280 nM for the second. The first is the more potent here.

Going from `CSCC[C@H](NC(=O)C(C)CS)C(=O)O` (mixture of isomers) [Example 23, (±)-N-(3-Mercapto-2-methyl-1-oxopropyl)-L-methionine, 1,1-dimethylethanamine salt (1:1)] to `CC(CS)C(=O)N[C@@H](C)C(=O)O` (mixture of isomers) [Example 25, (±)-N-(3-Mercapto-2-methyl-1-oxopropyl)-L-alanine, N-cyclohexylcyclohexanamine salt (1:1)], the IC50 rises from 49 nM to 120 nM (2.4-fold).

Going from `O=C(N[C@@H](Cc1ccc(O)c(O)c1)C(=O)O)C(CS)Cc1ccccc1` (mixture of isomers) [Example 24, (±)-3-Hydroxy-N-[2-(mercaptomethyl)-1-oxo-3-phenylpropyl]-L-tyrosine, 1,1-dimethylethanamine salt (1:1)] to `O=C(N[C@@H](Cc1ccc(O)cc1)C(=O)O)C(CS)Cc1ccccc1` (mixture of isomers) [Example 29, (±)-N-[2-(Mercaptomethyl)-1-oxo-3-phenylpropyl]-L -tyrosine], the IC50 falls from 47 nM to 17 nM (2.8-fold). The second is the more potent here.

Compared with `O=C(NCCCC[C@H](NC(=O)C(CS)Cc1ccccc1)C(=O)O)OCc1ccccc1` (mixture of isomers) [Example 26, (±)-N^2-[2-(Mercaptomethyl)-1-oxo-3-phenylpropyl]-N^6-[(phenylmethoxy)carbonyl]-L-lysine, N-cyclohexylcyclohexanamine salt (1:1)], `O=C(N[C@@H](Cc1c[nH]c2ccccc12)C(=O)O)C(CS)Cc1ccccc1` (mixture of isomers) [Example 28, (±)-N-[2-(Mercaptomethyl)-1-oxo-3-phenylpropyl]-L -tryptophan, 1,1-dimethylethanamine salt (1:1)] is 4.1-fold lower in IC50: 32 nM for the first, 7.8 nM for the second. The second is the more potent here.

Going from `CC(C)CC(CS)C(=O)NCC(=O)N[C@@H](CCCN=C(N)N)C(=O)O` (mixture of isomers) [Example 55, (±)-N-[N,[2-(Mercaptomethyl)-4-methyl-1-oxopentyl]-glycyl]-L-arginine] to `CC(C)CC(CS)C(=O)NCC(=O)N[C@@H](CCC(N)=O)C(=O)O` (mixture of isomers) [Example 59, (±)-N^2-[N-[2-(Mercaptomethyl)-4-methyl-1-oxopentyl]-glycyl]-L-glutamine, ammonium salt (1:1)], the IC50 falls from 530 nM to 330 nM (1.6-fold). The second is the more potent here.

`CC(C)C[C@H](NC(=O)[C@H](Cc1ccccc1)NC(=O)[C@@H]1CCCC[C@H]1CS)C(=O)O` (mixture of isomers) [Example 67, (trans)-N-[N-[[2-(Mercaptomethyl)cyclohexyl]carbonyl]-L-phenylalanyl]-L-leucine] and `CC(C)C[C@@H](NC(=O)[C@@H](Cc1ccccc1)NC(=O)[C@@H]1CCCC[C@H]1C(=O)O)C(=O)O` (mixture of isomers) [Example 81, (trans)(R,R)-N-[N-[(2-Carboxycyclohexyl)carbonyl]-L-phenylalanyl]-L-leucine] are within 1.5-fold of each other in IC50: 970 nM for the first, 1200 nM for the second.

Compared with `CC(C)CC(CS)C(=O)NCC(=O)O` (racemic) [Example 8, (±)-N-[2-(Mercaptomethyl)-4-methyl-1-oxopentyl]-glycine], `CC(C)CC(CS)C(=O)N[C@@H](C)C(=O)O` (single isomer, unassigned; isomer a) [Example 12, N-[2-(Mercaptomethyl)-4-methyl-1-oxopentyl]-L-alanine (isomer A)] is 85-fold lower in IC50: 280 nM for the first, 3.3 nM for the second.

`CCCC(C)C(CS)C(=O)NCC(=O)O` (racemic) [Example 10, (±)-N-[2-(Mercaptomethyl)-3-methyl-1-oxohexyl]-glycine, N-cyclohexylcyclohexanamine salt (1:1)] and `CC(CS)C(=O)NCC(=O)O` (racemic) [Example 16, (±)-N-(3-Mercapto-2-methyl-1-oxopropyl)glycine] are within 1.5-fold of each other in IC50: 510 nM for the first, 370 nM for the second.

Going from `CC(CS)C(=O)N[C@H](C(=O)O)C(C)C` (mixture of isomers) [Example 20, (±)-N-(3-Mercapto-2-methyl-1-oxopropyl)-L-valine] to `CC(C)CC(CS)C(=O)N[C@@H](Cc1ccccc1)C(=O)O` (mixture of isomers) [Example 33, (±)-N-[2-(Mercaptomethyl)-4-methyl-1-oxopentyl]-L-phenylalanine], the IC50 falls from 21 nM to 9 nM (2.3-fold). The second is the more potent here.

`O=C(O)CCNC(=O)C(CS)Cc1ccccc1` (racemic) [Example 45, (±)-3-[[2-(Mercaptomethyl)-1-oxo-3-phenylpropyl]amino]propanoic acid] and `O=C(O)CCCNC(=O)C(CS)Cc1ccccc1` (racemic) [Example 46, (±)-4-[[2-(Mercaptomethyl)-1-oxo-3-phenylpropyl]amino]butanoic acid] are within 1.5-fold of each other in IC50: 8.9 nM for the first, 6 nM for the second.

Compared with `O=C(O)CCCCNC(=O)C(CS)Cc1ccccc1` (racemic) [Example 49, (±)-5-[[2-(Mercaptomethyl)-1-oxo-3-phenylpropyl]amino]pentanoic acid], `O=C(O)CCCCCNC(=O)C(CS)Cc1ccccc1` (racemic) [Example 50, (±)-6-[[2-(Mercaptomethyl)-1-oxo-3-phenylpropyl]amino]hexanoic acid] is 2.7-fold higher in IC50: 22 nM for the first, 59 nM for the second.

`O=C(O)CCCCCCCCCCNC(=O)C(CS)Cc1ccccc1` (racemic) [Example 53, (±)-11-[[2-(Mercaptomethyl)-1-oxo-3-phenylpropyl]amino]undecanoic acid] and `CC(C)CC(CS)C(=O)NCCC(=O)N[C@@H](CCCNC(=N)N)C(=O)O` (mixture of isomers) [Example 58, (±)-N-[N-[2-(Mercaptomethyl)-4-methyl-1-oxopentyl]-β-alanyl]-L-arginine] are within 1.5-fold of each other in IC50: 76 nM for the first, 95 nM for the second.
